Laboratory results reported in the NIST ThermoML archive (doi:10.1021/acs.jced.5b00447).

Test: xn = mol fraction of the nth substance listed
Conditions: for surface tension liquid-gas: wilhelmi plate; for viscosity / speed of sound / mass density: 100 kPa, Liquid; for viscosity: Capillary tube (Ostwald / Ubbelohde) method; for speed of sound: Frequency=3 MHz, Sing-around technique in a fixed-path interferometer; for mass density: Vibrating tube method

CN(C)CCN [2-dimethylamino-1-ethylamine] + O
Conditions	mass density [kg/m3]	speed of sound [m/s]	surface tension liquid-gas [mN/m]	viscosity [mPa·s]
293.15 K, x1 = 0.1002	975	1773.4	42.6	6.83
293.15 K, x1 = 0.2	952	1708.6	37.1	12.66
293.15 K, x1 = 0.3002	920	1605.4	32.9	10.5
293.15 K, x1 = 0.3996	895	1517.2	30.6	6.463
293.15 K, x1 = 0.5035	874	1456.6	29.4	3.875
293.15 K, x1 = 0.5995	858	1419.2	28.6	2.743
293.15 K, x1 = 0.7007	844	1387.2	27.9	1.965
293.15 K, x1 = 0.8002	833	1349.8	27.4	1.464
293.15 K, x1 = 0.8999	825	1328	26.9	1.162
293.15 K, x1 = 1	819	1319.6	26.4	0.988
303.15 K, x1 = 0.1002	970	1743.6	41.9	4.28
303.15 K, x1 = 0.2	943	1672.8	36.3	7.355
303.15 K, x1 = 0.3002	912	1568.6	32.2	6.268
303.15 K, x1 = 0.3996	886	1480.2	29.8	4.148
303.15 K, x1 = 0.5035	865	1419.2	28.6	2.709
303.15 K, x1 = 0.5995	849	1381.6	27.8	2.013
303.15 K, x1 = 0.7007	835	1349	27.1	1.51
303.15 K, x1 = 0.8002	824	1305.2	26.6	1.161
303.15 K, x1 = 0.8999	816	1288.7	26.1	0.94
303.15 K, x1 = 1	810	1279.3	25.8	0.819
313.15 K, x1 = 0.1002	963	1712.8	41.3	2.891
313.15 K, x1 = 0.2	935	1636.1	35.2	4.689
313.15 K, x1 = 0.3002	901	1531.3	31.2	4.105
313.15 K, x1 = 0.3996	877	1443.1	28.9	2.884
313.15 K, x1 = 0.5035	856	1381.8	27.8	2.019
313.15 K, x1 = 0.5995	840	1343.3	27	1.552
313.15 K, x1 = 0.7007	826	1310.3	26.3	1.192
313.15 K, x1 = 0.8002	814	1266.2	25.8	0.937
313.15 K, x1 = 0.8999	806	1249.2	25.3	0.773
313.15 K, x1 = 1	801	1239	25.2	0.693
323.15 K, x1 = 0.1002	955	1682	40.4	2.069
323.15 K, x1 = 0.2	926	1598.4	34.3	3.179
323.15 K, x1 = 0.3002	893	1493.1	30.6	2.853
323.15 K, x1 = 0.3996	868	1411.3	27.9	2.105
323.15 K, x1 = 0.5035	847	1343.5	27.1	1.519
323.15 K, x1 = 0.5995	831	1305.1	26.4	1.201
323.15 K, x1 = 0.7007	817	1271.7	25.7	0.967
323.15 K, x1 = 0.8002	806	1227	25.2	0.804
323.15 K, x1 = 0.8999	797	1209.1	24.7	0.686
323.15 K, x1 = 1	791	1199.3	24.5	0.596
